In brackets after ≈: the same amount, converted by molar mass. Like-named read-outs stand apart in the source and are kept apart here.
Tests used:
[1] = system: Streptococcus pyogenes C203; assay: Protection of mice experimentally infected with S. pyogenes C203; type: in vivo
Procedure: Some of the derivatives of this invention have shown in vivo antimicrobial activity against experimentally-induced infections in laboratory animals. When two doses of test compound were administered to mice experimentally infected with S. pyogenes C203, the activity observed was measured as an ED50 value [effective dose in mg/kg to protect 50% of the test animals: see Warren Wick, et al., J. Bacteriol. 81, 233-235 (1961)].

Pasteurella multocida = assay: Pasteurella infection in one-day old chicks; type: in vivo; conditions: subcutaneous, 30 mg/kg × 2, 1 and 4 hours post-challenge
Procedure: Certain of the formula 1 compounds of this invention have also shown in vivo activity against infections induced by gram-negative bacteria. Table V summarizes the results of tests in which illustrative compounds were evaluated against a Pasteurella infection in one-day old chicks. The compounds were administered parenterally after challenge of the chicks with Pasteurella multocida (0.1 ml of a 10^-4 dilution of a twenty-hour tryptose broth culture of an avian P. multocida given subcutaneously). In these tests, unless indicated otherwise, all non-medicated infected chicks died within 24 hours of Pasteurella challenge. In the tests summarized in Table V, the compounds were administered by subcutaneous injection at a dosage of 30 mg/kg, 1 and 4 hours post-challenge of the chicks with P. multocida.

[2] = system: Staphylococcus epidermidis EPI2; assay: MIC, standard agar-dilution assay; type: cell-based
Procedure: (§1) The MIC's in Table II were determined by standard agar-dilution assays. The MIC's in Table III were obtained using a conventional broth-dilution microtiter test.

[3] = system: Staphylococcus aureus X400; assay: MIC, standard agar-dilution assay; type: cell-based
Procedure: as §1

[4] = system: Haemophilus influenzae C.L.; assay: MIC, standard agar-dilution assay; type: cell-based
Procedure: as §1

[5] = system: Haemophilus influenzae 76; assay: MIC, standard agar-dilution assay; type: cell-based; conditions: Haemophilus influenzae, 76
Procedure: as §1

[6] = system: Mycoplasma gallisepticum 41313; assay: MIC, conventional broth-dilution microtiter test; type: cell-based; conditions: Mycoplasmoides gallisepticum; broth-dilution microtiter; Mycoplasma gallisepticum 41313, Resistant strain; read-out: MIC
In short: (§2)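 Two formats were used. Broth dilution in microtiter plates served for Pasteurella and Mycoplasma, while agar dilution served for Klebsiella.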

Mycoplasma hyorhinis = assay: MIC, conventional broth-dilution microtiter test; type: cell-based; conditions: broth-dilution microtiter; Mycoplasma hyorhinis; read-out: MIC
In short: (§3)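 Agar plates containing graded compound levels gave the Klebsiella value. Graded broth dilutions in microtiter plates gave the Pasteurella and Mycoplasma values.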

Staphylococcus aureus = assay: MIC, conventional broth-dilution microtiter test; type: cell-based
Procedure: (§4) Certain of the derivatives are active against some gram-negative bacteria, such as Pasteurella species. The MIC's in Table II were determined by standard agar-dilution assays. The MIC's in Table III were obtained using a conventional broth-dilution microtiter test.

[7] = system: Pasteurella multocida 68C; assay: MIC, conventional broth-dilution microtiter test; type: cell-based
In short: as §2

[8] = system: Pasteurella hemolytica 23C; assay: MIC, conventional broth-dilution microtiter test; type: cell-based
In short: as §2

[9] = system: Pasteurella hemolytica 22C; assay: MIC, conventional broth-dilution microtiter test; type: cell-based
In short: as §2

Mycoplasma synoviae = assay: MIC, conventional broth-dilution microtiter test; type: cell-based; conditions: Mycoplasmopsis synoviae
In short: as §3

[10] = system: Pasteurella multocida 22A; assay: MIC, conventional broth-dilution microtiter test; type: cell-based
In short: as §2

[11] = system: Mycoplasma gallisepticum 34159; assay: MIC, conventional broth-dilution microtiter test; type: cell-based; conditions: Mycoplasmoides gallisepticum; broth-dilution microtiter; Mycoplasma gallisepticum 34159, Resistant strain; read-out: MIC
In short: as §2

Mycoplasma gallisepticum = assay: MIC, conventional broth-dilution microtiter test; type: cell-based; conditions: Mycoplasmoides gallisepticum
In short: as §2

[12] = system: Pasteurella hemolytica 41D; assay: MIC, conventional broth-dilution microtiter test; type: cell-based
In short: as §2

[13] = system: Pasteurella multocida 60A; assay: MIC, conventional broth-dilution microtiter test; type: cell-based
In short: as §2

[14] = system: Pasteurella multocida 17E; assay: MIC, conventional broth-dilution microtiter test; type: cell-based
In short: as §2

Streptococcus sp. 80 = assay: MIC, conventional broth-dilution microtiter test; type: cell-based
Procedure: as §4

[15] = system: Pasteurella multocida 40G; assay: MIC, conventional broth-dilution microtiter test; type: cell-based
In short: as §2

[16] = system: Streptococcus pyogenes C203; assay: MIC, standard agar-dilution assay; type: cell-based
Procedure: as §4

[17] = system: Klebsiella pneumoniae X26; assay: MIC, standard agar-dilution assay; type: cell-based; conditions: agar-dilution; Klebsiella pneumoniae X26; read-out: MIC
In short: as §3

[18] = system: Streptococcus pneumoniae Park I; assay: MIC, standard agar-dilution assay; type: cell-based
Procedure: as §4

[19] = system: Klebsiella pneumoniae KAE; assay: MIC, standard agar-dilution assay; type: cell-based; conditions: agar-dilution; Klebsiella pneumoniae KAE; read-out: MIC
In short: as §2

[20] = system: Staphylococcus aureus X1.1; assay: MIC, standard agar-dilution assay; type: cell-based; conditions: Staphylococcus aureus, X1.1
In short: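 A standard agar-dilution assay was used to test compounds against the Staphylococcus aureus isolate X1.1. Bacterial growth on agar with different compound concentrations was assessed, and the minimum inhibitory concentration was recorded in ug/mL.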

[21] = system: Staphylococcus aureus V41; assay: MIC, standard agar-dilution assay; type: cell-based
Procedure: as §4

Escherichia coli EC14 = assay: MIC, standard agar-dilution assay; type: cell-based; conditions: agar-dilution; Escherichia coli EC14; read-out: MIC
Procedure: as §4

Escherichia coli TEM = assay: MIC, standard agar-dilution assay; type: cell-based
In short: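 Antibacterial activity toward the gram-negative organism Escherichia coli was assessed by conventional agar dilution. The MIC, reported in ug/mL, is the minimum compound concentration on agar that prevents growth.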

[22] = system: Streptococcus Group D X66; assay: MIC, standard agar-dilution assay; type: cell-based
Procedure: as §4

[23] = system: Streptococcus pyogenes 9960; assay: MIC, standard agar-dilution assay; type: cell-based; conditions: agar-dilution, Streptococcus 9960, read-out: MIC
Procedure: as §4

[24] = system: Staphylococcus aureus S13E; assay: microbe, parasite or virus in culture; type: cell-based
Procedure: as §1

[25] = system: Staphylococcus epidermidis EPI1; assay: microbe, parasite or virus in culture; type: cell-based; conditions: Staphylococcus epidermidis, EPI1
Procedure: as §1

[26] = C203, sc, mice, subcutaneous, mg/kg × 2, doses given 1 and 4 hours postinfection, read-out: ED50 Subcutaneous
[27] = agar-dilution, Haemophilus influenzae C.L., Ampicillin-sensitive strain, read-out: MIC
[28] = broth-dilution microtiter, Mycoplasma synoviae, read-out: MIC
[29] = agar-dilution, Streptococcus pyogenes C203, read-out: MIC
[30] = agar-dilution, Staphylococcus epidermidis EPI2, read-out: MIC
[31] = broth-dilution microtiter, Pasteurella hemolytica 23C, read-out: MIC
[32] = broth-dilution microtiter, Pasteurella hemolytica 22C, read-out: MIC
[33] = broth-dilution microtiter, Pasteurella hemolytica 41D, read-out: MIC
[34] = broth-dilution microtiter, Pasteurella multocida 17E, Bovine isolate, read-out: MIC
[35] = agar-dilution, Escherichia coli TEM, read-out: MIC

SMILES	ED50 ([1]; C203, po, read-out: ED50 Oral) [mg/kg]	ED50 [1, 26] [mg/kg]	Number of Deaths/Number Treated (Pasteurella multocida)	MIC ([3]; Staphylococcus aureus, X400) [µg/mL]	MIC [4, 27] [µg/mL]	MIC [5] [µg/mL]	MIC [6] [µg/mL]	MIC (Mycoplasma hyorhinis) [µg/mL]	MIC ([7]; Pasteurella multocida, 68C) [µg/mL]	MIC (Mycoplasma synoviae; [28]) [µg/mL]	MIC ([10]; Pasteurella multocida, 22A) [µg/mL]	MIC [11] [µg/mL]	MIC [17] [µg/mL]	MIC [19] [µg/mL]	MIC [20] [µg/mL]	MIC (Escherichia coli EC14) [µg/mL]	MIC [22] [µg/mL]	MIC [23] [µg/mL]	MIC [24] [µg/mL]	MIC [25] [µg/mL]	further results
CCC1CC(C)C(=O)C=CC(C)=CC(CN2CCCCCCC2)C(CC)OC(=O)CC(O)C(C)C1OC1OC(C)C(O)C(N(C)C)C1O (stereo not drawn) [Compound 43, 23-Octahydroazocin-1-yl-20,23-dideoxy-20-dihydro-OMT]	> 100	> 12.5	8/10	1 (≈ 1.47 µM)	4 (≈ 5.89 µM)	8 (≈ 11.8 µM)	> 50	50 (≈ 73.6 µM)	1.56 (≈ 2.3 µM)	> 50	1.56 (≈ 2.3 µM)	> 50	4 (≈ 5.89 µM)	> 128	0.5 (≈ 0.736 µM)	> 128	1 (≈ 1.47 µM)	2 (≈ 2.95 µM)	0.5 (≈ 0.736 µM)	0.5 (≈ 0.736 µM)	MIC ([2]; Staphylococcus epidermidis, EPI2): 0.25 µg/mL (≈ 0.368 µM); MIC (Staphylococcus aureus; broth-dilution microtiter, read-out: MIC): 0.39 µg/mL (≈ 0.574 µM); MIC ([8]; Pasteurella, 23C): 1.56 µg/mL (≈ 2.3 µM); MIC ([9]; Pasteurella, 22C): 0.78 µg/mL (≈ 1.15 µM); MIC (Mycoplasma gallisepticum): 0.78 µg/mL (≈ 1.15 µM); MIC ([12]; Pasteurella, 41D): 1.56 µg/mL (≈ 2.3 µM); MIC ([13]; Pasteurella multocida, 60A): 0.78 µg/mL (≈ 1.15 µM); MIC ([14]; Pasteurella multocida, 17E): 0.78 µg/mL (≈ 1.15 µM); MIC (Streptococcus sp. 80; Streptococcus, SP.80): 0.78 µg/mL (≈ 1.15 µM); MIC ([15]; Pasteurella multocida, 40G): 1.56 µg/mL (≈ 2.3 µM); MIC [16, 29]: 0.12 µg/mL (≈ 0.177 µM); MIC ([18]; Streptococcus pneumoniae): 1 µg/mL (≈ 1.47 µM); MIC ([21]; Staphylococcus aureus, V41): 0.5 µg/mL (≈ 0.736 µM); MIC (Escherichia coli TEM; Escherichia coli): 16 µg/mL (≈ 23.6 µM)
CCC1CC(C)C(=O)C=CC(C)=CC(CN2CCC(O)CC2)C(CC)OC(=O)CC(O)C(C)C1OC1OC(C)C(O)C(N(C)C)C1O (stereo not drawn) [Compound 45, 23-(4-Hydroxypiperidino)-20,23-dideoxy-20-dihydro-OMT]	> 100	> 10	10/10		32 (≈ 48 µM)	64 (≈ 96 µM)	50 (≈ 75 µM)	> 50	12.5 (≈ 18.7 µM)		12.5 (≈ 18.7 µM)	> 50	16 (≈ 24 µM)	> 128	8 (≈ 12 µM)	> 128	64 (≈ 96 µM)	128 (≈ 192 µM)	8 (≈ 12 µM)	8 (≈ 12 µM)	MIC [2, 30]: 2 µg/mL (≈ 3 µM); MIC ([3]; agar-dilution, Staphylococcus aureus X400, Methicillin-resistant strain, read-out: MIC): 32 µg/mL (≈ 48 µM); MIC (Staphylococcus aureus): 12.5 µg/mL (≈ 18.7 µM); MIC [8, 31]: 25 µg/mL (≈ 37.5 µM); MIC [9, 32]: 25 µg/mL (≈ 37.5 µM); MIC (Mycoplasma synoviae): 12.5 µg/mL (≈ 18.7 µM); MIC (Mycoplasma gallisepticum; broth-dilution microtiter, Mycoplasma gallisepticum, read-out: MIC): 6.25 µg/mL (≈ 9.37 µM); MIC [12, 33]: 25 µg/mL (≈ 37.5 µM); MIC ([13]; Pasteurella multocida, 60A): 12.5 µg/mL (≈ 18.7 µM); MIC [14, 34]: 25 µg/mL (≈ 37.5 µM); MIC (Streptococcus sp. 80; broth-dilution microtiter, Streptococcus sp. 80, read-out: MIC): 1.56 µg/mL (≈ 2.34 µM); MIC ([15]; Pasteurella multocida, 40G): 12.5 µg/mL (≈ 18.7 µM); MIC [16, 29]: 32 µg/mL (≈ 48 µM); MIC ([18]; agar-dilution, Streptococcus pneumoniae Park I, read-out: MIC): 2 µg/mL (≈ 3 µM); MIC ([21]; agar-dilution, Staphylococcus aureus V41, Penicillin-resistant strain, read-out: MIC): 16 µg/mL (≈ 24 µM); MIC (Escherichia coli TEM; [35]): > 128 µg/mL
CCC1CC(C)C(=O)C=CC(C)=CC(COc2cccnc2)C(CC)OC(=O)CC(O)C(C)C1OC1OC(C)C(O)C(N(C)C)C1O (stereo not drawn) [Compound 46, 23-O-(3-Pyridyl)-20-deoxy-20-dihydro-OMT]	> 100	> 10	10/10	2 (≈ 3.03 µM)		16 (≈ 24.2 µM)	50 (≈ 75.7 µM)	25 (≈ 37.8 µM)		6.25 (≈ 9.46 µM)		50 (≈ 75.7 µM)	4 (≈ 6.05 µM)	> 128	1 (≈ 1.51 µM)	> 128	2 (≈ 3.03 µM)	4 (≈ 6.05 µM)	1 (≈ 1.51 µM)	1 (≈ 1.51 µM)	MIC [2, 30]: 0.25 µg/mL (≈ 0.378 µM); MIC ([4]; Haemophilus influenzae): 16 µg/mL (≈ 24.2 µM); MIC (Staphylococcus aureus): 1.56 µg/mL (≈ 2.36 µM); MIC ([7]; broth-dilution microtiter, Pasteurella multocida 68C, read-out: MIC): 6.25 µg/mL (≈ 9.46 µM); MIC [8, 31]: 50 µg/mL (≈ 75.7 µM); MIC [9, 32]: 50 µg/mL (≈ 75.7 µM); MIC ([10]; broth-dilution microtiter, Pasteurella multocida 22A, read-out: MIC): 12.5 µg/mL (≈ 18.9 µM); MIC (Mycoplasma gallisepticum): 1.56 µg/mL (≈ 2.36 µM); MIC [12, 33]: 25 µg/mL (≈ 37.8 µM); MIC ([13]; broth-dilution microtiter, Pasteurella multocida 60A, Avian isolate, read-out: MIC): 12.5 µg/mL (≈ 18.9 µM); MIC [14, 34]: 12.5 µg/mL (≈ 18.9 µM); MIC (Streptococcus sp. 80; Streptococcus, SP.80): 3.12 µg/mL (≈ 4.72 µM); MIC ([15]; broth-dilution microtiter, Pasteurella multocida 40G, read-out: MIC): 12.5 µg/mL (≈ 18.9 µM); MIC ([16]; Streptococcus pyogenes, C203): 2 µg/mL (≈ 3.03 µM); MIC ([18]; Streptococcus pneumoniae): 0.5 µg/mL (≈ 0.757 µM); MIC ([21]; Staphylococcus aureus, V41): 0.5 µg/mL (≈ 0.757 µM); MIC (Escherichia coli TEM; [35]): 128 µg/mL (≈ 194 µM)

Source: patent US4468511A, “C-20- And C-23-Modified macrolide derivatives” (Eli Lilly and Company, priority 1983, dated 1984)
